Results from patent US20260232662A1, “MIR-124 INDUCER, AND PREPARATION METHOD THEREFOR AND USE THEREOF” (NANJING SYNNOCARE PHARMACEUTICAL TECHNOLOGY CO., LTD., priority 2023, published 2026).

What was measured:
[1] = system: miR-124; assay: Induction of miR-124 expression in PBMC cells (qPCR); assay type: cell-based; settings: Homo sapiens, 72 h, 0.1 μM compound, human PBMCs stimulated with PMA/ionomycin, miR-191 reference gene, read-out: miR-124 expression, Fold change vs DMSO
Summary of the method: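 Human PBMCs (3.0*10^6 cells/well) were stimulated with PMA 10 ng/mL plus ionomycin 200 ng/mL for 48 h, then given compound at 0.1 μM final for 72 h. miR-124 was measured by RT-qPCR against miR-191 as reference gene. Expression is relative to DMSO control.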

[2] = system: DSS-induced IBD in mice; assay: Preventive and therapeutic effects on DSS-induced inflammatory bowel disease (IBD) in mice; assay type: in vivo; settings: for preventive and therapeutic effects on DSS-induced IBD (body weight, DAI, colon length) relative to ABX464: further experiments, figures not given; for reduction in total DAI scores compared to the model group / colon length as % of normal control values / Total Disease Activity Index (DAI) Scores / total DAI scores / Colon length: 40 mg/kg p.o. q.d.; for colon length as % of normal control values: model group 77.32%; for body weight gain percentage / body weight loss percentage: day 10, 40 mg/kg p.o. q.d., female C57BL/6 mice, 2% DSS; for Total Disease Activity Index (DAI) Scores / total DAI scores: final day; for Total Disease Activity Index (DAI) Scores / Colon length: mean ± S.E.M.; for Total Disease Activity Index (DAI) Scores: model group 14.50; for total DAI scores: model group 14.5 points; for Colon length: last experimental day, normal control 6.44, model group 4.98
Excerpt: This study evaluated the preventive and therapeutic effects of the compounds of the present invention on dextran sulfate sodium (DSS)-induced IBD in mice. The experiment utilized female C57BL/6 mice (purchased from Beijing Vital River Laboratory Animal Technology Co., Ltd.) to establish the DSS-induced IBD model.
Female C57BL/6 mice (6-8 weeks old) were purchased from Beijing Vital River Laboratory Animal Technology Co., Ltd. Upon arrival, the mice were housed in individually ventilated cages (IVC) under specific pathogen-free (SPF) conditions, with 2-6 mice per cage. They were provided with ad libitum access to food and water and maintained at a temperature of 20-26° C. (68-79° F.), relative humidity of 40-70%, and a 12-hour light/dark cycle (lights on from 08:00 to 20:00). After a 7-day acclimatization period, experiments were initiated.
Test compounds and ABX464 vehicle: 5% DMSO+10% Solutol HS-15+85% saline, stored at 4° C.
DSS solution: 2% (w/v) DSS in autoclaved drinking water, prepared fresh before use.
The mice were randomly allocated into eight groups according to body weight: normal control group (negative control), model group (DSS group), ABX464 treatment group, test compound groups (administered with Compounds 19, 43, 59, 84, and 89 of the present invention at 40 mg/kg, p.o., q.d.)
Following a 7-day acclimation period, the model group and compound treatment groups were administered 2% DSS aqueous solution ad libitum for 7 days starting from Day 0, followed by 3 days of normal water consumption. All groups received daily oral gavage of their respective vehicles or test compounds for 10 consecutive days beginning on the trial commencement date. During the experimental period, body weight changes in mice were monitored and recorded daily, the Disease Activity Index (DAI) was scored each day with the total score calculated on the final day, and on the last experimental day all animals were humanely euthanized followed by colon collection and length measurement.
The experimental data were expressed as mean±standard error of the mean (mean±S.E.M.). Statistical analysis was performed using GraphPad Prism or SPSS software with appropriate statistical methods. A value of P<0.05 was considered statistically significant.

[3] = In vivo pharmacokinetic evaluation in mice; settings: mouse; male ICR mice, po, 10 mg/kg, plasma
Method: The compound was administered orally (p.o.) at a dose of 10 mg/kg. The test formulation was prepared at a final concentration of 0.4 mg/mL in 5% DMSO+45% PEG400+50% aqueous solution or suspension. Male ICR mice (9 per group) were sampled at three discontinuous time points (n=3 mice/time point). Approximately 80 μL of blood was collected via orbital or cardiac puncture at 5 min, 15 min, 30 min, 1 h, 2 h, 4 h, 8 h, and 24 h post-dose. All whole blood samples were collected in EDTA K2-containing tubes. After centrifugation at 4° C. (4000 rpm, 10 min), plasma was collected and stored below −40° C. for subsequent analysis. Compound concentrations in plasma were determined by liquid chromatography-tandem mass spectrometry (LC-MS/MS), and pharmacokinetic parameters were derived from the plasma concentration-time curves.

Row | AUC(0-t) [3] [ng·h/mL] | Cmax [3] [ng/mL] | Tmax [3] [h] | half-life [3] [h] | SMILES | fold induction at 0.1 µM [1] | preventive and therapeutic effects on DSS-induced IBD (body weight, DAI, colon length) relative to ABX464 [2] | reduction in total DAI scores compared to the model group [2] [%] | colon length as % of normal control values [2] [%] | body weight gain percentage [2] [%] | Total Disease Activity Index (DAI) Scores [2] | total DAI scores [2] [points] | Colon length [2] [cm] | body weight loss percentage [2] [%]
1 | – | – | – | – | Fc1cc(Nc2nc3cc(Cl)cc(Cl)c3n3ccnc23)ccc1C(F)(F)F [Compound B97, 7,9-dichloro-N-(3-fluoro-4-(trifluoromethyl)phenyl) imidazolo[1,2-a] quinoxalin-4-amine] | 26.2 | outperformed the reference drug ABX464 | – | – | – | – | – | – | –
2 | 1640 | 358 | 4 | 3.36 | FC(F)(F)Oc1ccc(Nc2nc3c(Cl)cccc3n3ccnc23)cc1Cl [Compound 19] | 21.2 | – | 42.55 | 96.27 | 0.16 | 8.33 | 8.33 | 6.20 | –
3 | – | – | – | – | FC(F)(F)Oc1ccc(Nc2nc3cccc(Br)c3n3ccnc23)cc1Cl [Compound B83, 9-bromo-N-(3-chloro-4-(trifluoromethoxy)phenyl) imidazolo[1,2-a] quinoxalin-4-amine] | – | outperformed the reference drug ABX464 | – | – | – | – | – | – | –
4 | – | – | – | – | FC(F)(F)Oc1ccc(NC2=Nc3c(Br)cccc3N3CCN=C23)cc1Cl [Compound 84] | 15.5 | – | 41.59 | 96.89 | 0.38 | 8.47 | 8.47 | 6.24 | –
5 | 420 | 168 | 0.5 | 1.08 | FC(F)(F)Oc1ccc(Nc2ccc3cccc(Cl)c3n2)cc1 [ABX464, reference compound] | 13.5 | – | 5.72 | – | – | 13.67 | – | 6.22 | 5.37
6 | – | – | – | – | FC(F)(F)Oc1ccc(Nc2nc3cc(Cl)ccc3n3ccnc23)cc1Cl [Compound B108, 7-chloro-N-(3-chloro-4-(trifluoromethoxy)phenyl) imidazolo[1,2-a] quinoxalin-4-amine] | 22.5 | outperformed the reference drug ABX464 | – | – | – | – | – | – | –
7 | 1860 | 454 | 2 | 3.46 | FC(F)(F)c1ccc(NC2=Nc3c(Cl)cc(Cl)cc3N3CCN=C23)cc1 [Compound 89] | 24.3 | – | – | 99.07 | – | 10.33 | 10.33 | 6.38 | 1.85
8 | 1680 | 348 | 2 | 3.87 | Fc1cc(Nc2nc3c(F)cccc3n3ccnc23)ccc1OC(F)(F)F [Compound 43] | 18.9 | – | – | 99.69 | – | 10.03 | 10.03 | 6.42 | 2.22
9 | – | – | – | – | Fc1cc(Nc2nc3c(F)cc(Cl)cc3n3ccnc23)ccc1C(F)(F)F [Compound 59] | 20.5 | – | 40.90 | 100 | 2.12 | 8.57 | 8.57 | 6.48 | –
10 | 3240 | 378 | 2 | 3.05 | FC(F)(F)Oc1ccc(Nc2nc3cc(Cl)ccc3n3ccnc23)cc1 [Compound B7, 7-chloro-N-(4-(trifluoromethoxy)phenyl)imidazolo [1,2-a]quinoxalin-4-amine] | 32 | outperformed the reference drug ABX464 | – | – | – | – | – | – | –
